Patent US9980943B2, “Methods of treating muscular dystrophy” (BOARD OF REGENTS OF THE NEVADA SYSTEM OF HIGHER EDUCATION, …, priority 2013, dated 2018)

Assays:
Type in all cases: cell-based, mouse
[1] = test system: α7 integrin (LacZ reporter in α7βgal+/− myoblasts); assay: Myoblast α7+/LacZ integrin FDG assay (Burkin assay in myoblasts, 96-well); conditions: α7+/LacZ myoblasts, 96-well
[2] = test system: β-galactosidase in CMV-LacZ C2C12 myotubes; assay: CMV-LacZ secondary screen in C2C12 myotubes (β-Gal stabilizing assay); conditions: for CMV-LACZ in Myotubes (β-galactosidase activity relative to DMSO): CMV-LacZ C2C12 myotubes, 96-well format; for CMV-LACZ in Myotubes, signal relative to DMSO: C2C12 CMV-LacZ myotubes, fold relative to DMSO
How it was run: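 Stable CMV-LacZ C2C12 clone; six-point curve 0.5–40 μM; duplicates.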

[3] = test system: α7 integrin (LacZ reporter in α7+/LacZ myotubes); assay: Myotube α7 integrin FDG assay (Burkin assay in myotubes, 96-well); conditions: myotubes

Row | Structure (SMILES) | Burkin Assay in Myoblasts, value relative to DMSO ([1]; 0.5 uM) | Burkin Assay in Myoblasts, value relative to DMSO ([1]; 1 uM) | Burkin Assay in Myoblasts, value relative to DMSO ([1]; 5 uM) | Burkin Assay in Myoblasts, value relative to DMSO ([1]; 10 uM) | Burkin Assay in Myoblasts, value relative to DMSO ([1]; 20 uM) | Burkin Assay in Myoblasts, value relative to DMSO ([1]; 40 uM) | CMV-LACZ in Myotubes (β-galactosidase activity relative to DMSO) ([2]; 5 uM) | CMV-LACZ in Myotubes (β-galactosidase activity relative to DMSO) ([2]; 10 uM) | CMV-LACZ in Myotubes (β-galactosidase activity relative to DMSO) ([2]; 20 uM) | CMV-LACZ in Myotubes (β-galactosidase activity relative to DMSO) ([2]; 40 uM) | Burkin Assay in Myotubes (signal relative to DMSO) ([3]; 0.5 uM) | Burkin Assay in Myotubes (signal relative to DMSO) ([3]; 1 uM) | Burkin Assay in Myotubes (signal relative to DMSO) ([3]; 5 uM) | Burkin Assay in Myotubes (signal relative to DMSO) ([3]; 10 uM) | Burkin Assay in Myotubes (signal relative to DMSO) ([3]; 20 uM) | Burkin Assay in Myotubes (signal relative to DMSO) ([3]; 40 uM) | CMV-LACZ in Myotubes, signal relative to DMSO ([2]; 5 uM) | CMV-LACZ in Myotubes, signal relative to DMSO ([2]; 10 uM) | CMV-LACZ in Myotubes, signal relative to DMSO ([2]; 20 uM) | CMV-LACZ in Myotubes, signal relative to DMSO ([2]; 40 uM) | other results
1 | S=c1[nH]nc(Cn2cnc3ccccc32)n1-c1ccccc1 [MLS000707281-01] | 0.9507 | 0.9756 | 0.8935 | 0.8854 | 0.8359 | 0.7969 | 0.8706 | 0.9255 | 0.9474 | 0.9526 | 1.011 | 0.6537 | 1.059 | 0.7505 | 1.156 | 1.141 | – | – | – | – | –
2 | CNC(=S)N1CCC(NC(=O)C(Cc2ccc(F)cc2)NC(C)=O)CC1 (centres unmarked) [MLS000710130-01] | 0.9666 | 1.103 | 1.006 | 1.036 | 0.8326 | 0.8689 | – | – | – | – | 0.9811 | 0.8524 | 0.6183 | 0.6452 | 1.044 | 1.064 | 0.8144 | 0.8646 | 0.9864 | 0.9336 | –
3 | O=C(NCCCn1ccnc1)/C(=C/c1cccs1)NC(=O)c1ccco1 [MLS000712769-01] | 1.055 | 1.059 | 0.9476 | 0.9286 | 0.7697 | 0.7893 | – | – | – | – | 0.9746 | 0.8428 | 1.2524 | 0.9038 | 0.9219 | 0.9817 | 0.9651 | 1.071 | 0.9141 | 0.8582 | –
4 | CS(=O)(=O)N(Cc1ccc(C(=O)NC2CCCC2)cc1)c1ccccc1 [MLS000714175-01] | 0.5383 | 0.975 | 1.1625 | 1.06 | 0.9936 | 0.9626 | 0.9319 | 1.097 | 1.124 | 0.971 | 1.086 | 1.061 | 1.131 | 1.013 | 1.119 | 1.022 | – | – | – | – | –
5 | COCCN1C=C(C(=O)OC)C(c2ccccc2Cl)C(C(=O)OC)=C1 [MLS000718886-01] | 1.052 | 0.9394 | 1.087 | 0.9661 | 0.9124 | 0.8139 | 0.9787 | 0.9804 | 0.8798 | 0.8355 | 0.9819 | 0.9591 | 1.068 | 0.9981 | 0.938 | 0.9785 | – | – | – | – | –
6 | C/C(=N/OC(=O)CC(C)C)c1cc(-c2ccc(Cl)cc2)no1 [MLS000721030-01] | 0.9673 | 0.9348 | 1.027 | 1.166 | 1.025 | 1.122 | 1.111 | 0.9655 | 0.9276 | 0.7917 | 0.9757 | 1.051 | 1.121 | 1.2344 | 1.1412 | 1.205 | – | – | – | – | –
7 | COC(=O)Cc1c(O)ccn(Cc2ccc3c(c2)OCO3)c1=O [MLS000721525-01] | 1.086 | 1.086 | 0.9834 | 1.01 | 0.9936 | 0.985 | – | – | – | – | 0.6646 | 0.9136 | 0.6693 | 0.9806 | 0.8968 | 1.047 | 0.866 | 1.036 | 0.8409 | 0.9127 | –
8 | N#Cc1ccc(OCC(O)CS(=O)(=O)c2ccccc2)cc1 (centres unmarked) [MLS000721584-01] | – | – | – | – | – | – | – | – | – | – | – | – | – | – | – | – | 0.9573 | 0.9071 | 1.133 | 1.1019 | Burkin Assay in Myoblasts, signal relative to DMSO ([1]; 0.5 uM): 0.933; Burkin Assay in Myoblasts, signal relative to DMSO ([1]; 1 uM): 0.8525; Burkin Assay in Myoblasts, signal relative to DMSO ([1]; 5 uM): 1.03; Burkin Assay in Myoblasts, signal relative to DMSO ([1]; 10 uM): 0.9846; Burkin Assay in Myoblasts, signal relative to DMSO ([1]; 20 uM): 0.8663; Burkin Assay in Myoblasts, signal relative to DMSO ([1]; 40 uM): 0.7628; Burkin Assay in Myotubes, α7 integrin LacZ reporter signal relative to DMSO ([3]; 0.5 uM): 0.9148; Burkin Assay in Myotubes, α7 integrin LacZ reporter signal relative to DMSO ([3]; 1 uM): 0.9833; Burkin Assay in Myotubes, α7 integrin LacZ reporter signal relative to DMSO ([3]; 5 uM): 0.8802; Burkin Assay in Myotubes, α7 integrin LacZ reporter signal relative to DMSO ([3]; 10 uM): 0.8867; Burkin Assay in Myotubes, α7 integrin LacZ reporter signal relative to DMSO ([3]; 20 uM): 0.9155; Burkin Assay in Myotubes, α7 integrin LacZ reporter signal relative to DMSO ([3]; 40 uM): 0.9927
